The target of assay [1] is GDP-bound NRAS wild-type protein (Homo sapiens, UniProt P01111). Description: Binding to NRAS by surface plasmon resonance (SPR), KD and KD ratio to KRAS. The settings on record: ratio of KD for GDP-bound NRAS wild-type protein to KD for KRAS. A digest of the protocol:
(§1)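 Affinity is measured by surface plasmon resonance at 30°C against captured, GDP-loaded RAS carrying a biotinylated Avi tag. Compounds are titrated by single-cycle kinetics, and KD comes from a 1:1 fit.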
In general terms: In SPR one partner is held on a chip, and binding of the other changes the refractive index at the surface.

In assay [2] the test system is human lung cancer strain NCI-H441. The format is cell-based. The method in brief: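 Readout: […] after the ATP-based reagent. Compound: serial dilutions in dimethyl sulfoxide.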
Another assay concerns the target HRAS wild-type protein (Homo sapiens, UniProt P01112). Description: Binding to HRAS by surface plasmon resonance (SPR), KD and KD ratio to KRAS. The settings on record: ratio of KD for HRAS wild-type protein to KD for KRAS. The method in brief:
as §1

This is an account of results in patent EP4603105A1, “PHARMACEUTICAL COMPOSITION CONTAINING CYCLIC COMPOUND HAVING SELECTIVE KRAS INHIBITORY EFFECT AGAINST HRAS AND NRAS” (CHUGAI SEIYAKU KABUSHIKI KAISHA, priority 2022, dated 2024).

As usually defined, the IC50 is the concentration needed to halve the response being measured. Read a low IC50 as greater potency.

Chain of HRAS wild-type protein (P01112 whole entry): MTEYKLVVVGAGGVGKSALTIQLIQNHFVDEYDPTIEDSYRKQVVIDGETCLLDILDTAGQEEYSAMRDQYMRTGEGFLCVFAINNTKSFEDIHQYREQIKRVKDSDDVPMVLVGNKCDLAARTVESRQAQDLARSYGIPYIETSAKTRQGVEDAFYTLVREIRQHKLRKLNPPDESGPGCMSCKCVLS
Chain of GDP-bound NRAS wild-type protein (P01111 whole entry): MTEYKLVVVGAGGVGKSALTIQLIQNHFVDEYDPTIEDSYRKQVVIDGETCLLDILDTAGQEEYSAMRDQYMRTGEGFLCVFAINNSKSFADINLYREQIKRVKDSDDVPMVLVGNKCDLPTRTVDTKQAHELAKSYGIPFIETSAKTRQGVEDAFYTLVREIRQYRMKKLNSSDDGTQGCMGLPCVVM

As for `CCC[C@H]1C(=O)N[C@@H]([C@@H](C)CC)C(=O)N(C)CC(=O)N(C)[C@H]2C/C=C\CCN(C2=O)[C@@H](Cc2ccc(C(F)(F)F)cc2)C(=O)N(C)CC(=O)N[C@@H](CCc2ccc(Cl)c(Cl)c2)C(=O)N2CCOC[C@H]2C(=O)NC2(CC(C)(C)C2)C(=O)N(C)[C@@H](C(CC)CC)C(=O)N(C)[C@H](C(=O)N(C)C)CC(=O)N1C` [PP2920], the “NRAS /KRAS” value in assay [1] was “AA (a compound having 20 or more is denoted as AA)”. Further, the 50% inhibitory concentration (IC50) in assay [2] stood at 118 nM. Further, at HRAS wild-type protein, the “HRAS /KRAS” value is “A (a compound having 10 or more and less than 20 is denoted as A)”.

On to `CCC[C@H]1C(=O)N[C@@H]([C@@H](C)CC)C(=O)N(C)CC(=O)N(C)[C@H]2C/C=C\CCN(C2=O)[C@@H](Cc2ccc(C(F)(F)F)cc2)C(=O)N(C)CC(=O)N[C@@H](CCc2ccc(Cl)c(Cl)c2)C(=O)N2CC[C@H]2C(=O)NC2(CC(C)(C)C2)C(=O)N(C)[C@@H](C(CC)CC)C(=O)N(C)[C@H](C(=O)N(C)C)CC(=O)N1C` [PP2921], for which the “NRAS /KRAS” value in assay [1] is “AA (a compound having 20 or more is denoted as AA)”. In assay [2], this molecule had a half-inhibitory concentration (IC50) of 160 nM. At HRAS wild-type protein, the “HRAS /KRAS” value is “A (a compound having 10 or more and less than 20 is denoted as A)”.

With `CCC[C@H]1C(=O)N[C@@H]([C@@H](C)CC)C(=O)N(C)CC(=O)N(C)[C@H]2C/C=C\CCN(C2=O)[C@@H](Cc2ccc(C(F)(F)F)cc2)C(=O)N(C)CC(=O)N[C@@H](CCc2ccc(C(F)(F)F)c(Cl)c2)C(=O)N2CCCC[C@H]2C(=O)NC2(CC(C)(C)C2)C(=O)N(C)[C@@H](C(CC)CC)C(=O)N(C)[C@H](C(=O)N(C)C)CC(=O)N1C` [PP2928], in assay [1], the “NRAS /KRAS” value was “AA (a compound having 20 or more is denoted as AA)”. Besides, the concentration for half-maximal inhibition (IC50) in assay [2] turned out to be 168 nM. Besides, on HRAS wild-type protein, the “HRAS /KRAS” value was “A (a compound having 10 or more and less than 20 is denoted as A)”.

As to `CCC[C@H]1C(=O)N[C@@H]([C@@H](C)CC)C(=O)N(C)CC(=O)N(C)[C@H]2C/C=C\CCN(C2=O)[C@@H](Cc2ccc(C(F)(F)F)cc2)C(=O)N(C)CC(=O)N[C@@H](CCc2ccc(C(F)(F)F)c(Cl)c2)C(=O)N2CCOC[C@H]2C(=O)NC2(CC(C)(C)C2)C(=O)N(C)[C@@H](C(CC)CC)C(=O)N(C)[C@H](C(=O)N(C)C)CC(=O)N1C` [PP2929], the “NRAS /KRAS” value in assay [1] is on record as “AA (a compound having 20 or more is denoted as AA)”. The molecule further displayed an IC50 in assay [2] of 90.3 nM. The “HRAS /KRAS” value at HRAS wild-type protein is “A (a compound having 10 or more and less than 20 is denoted as A)”.

Take `CCC[C@H]1C(=O)N[C@@H]([C@@H](C)CC)C(=O)N(C)CC(=O)N(C)[C@H]2C/C=C\CCN(C2=O)[C@@H](Cc2ccc(C(F)(F)F)cc2)C(=O)N(C)CC(=O)N[C@@H](CCc2ccc(C(F)(F)F)c(OC)c2)C(=O)N2CCCC[C@H]2C(=O)NC2(CC(C)(C)C2)C(=O)N(C)[C@@H](C(CC)CC)C(=O)N(C)[C@H](C(=O)N(C)C)CC(=O)N1C` [PP2934]: the “NRAS /KRAS” value in assay [1] was “AA (a compound having 20 or more is denoted as AA)”. This molecule registered an IC50 in assay [2] of 108 nM. Also, the “HRAS /KRAS” value on HRAS wild-type protein was “A (a compound having 10 or more and less than 20 is denoted as A)”.

For `CCC[C@H]1C(=O)N[C@@H]([C@@H](C)CC)C(=O)N(C)CC(=O)N(C)[C@H]2C/C=C\CCN(C2=O)[C@@H](Cc2ccc(C(F)(F)F)cc2)C(=O)N(C)CC(=O)N[C@@H](CCc2ccc(C(F)(F)F)c(OC)c2)C(=O)N2CCOC[C@H]2C(=O)NC2(CC(C)(C)C2)C(=O)N(C)[C@@H](C(CC)CC)C(=O)N(C)[C@H](C(=O)N(C)C)CC(=O)N1C` [PP2935], the “NRAS /KRAS” value in assay [1] is “A (a compound having 10 or more and less than 20 is denoted as A)”. Moreover, in assay [2], the concentration for half-maximal inhibition (IC50) amounted to 50.5 nM. Besides, the “HRAS /KRAS” value at HRAS wild-type protein is “A (a compound having 10 or more and less than 20 is denoted as A)”.

Regarding `CCC[C@H]1C(=O)N[C@@H]([C@@H](C)CC)C(=O)N(C)CC(=O)N(C)[C@H]2C/C=C\CCN(C2=O)[C@@H](Cc2ccc(C(F)(F)F)cc2)C(=O)N(C)CC(=O)N[C@@H](CCc2ccc(C(F)(F)F)c(OC)c2)C(=O)N2CC[C@H]2C(=O)NC2(CC(C)(C)C2)C(=O)N(C)[C@@H](C(CC)CC)C(=O)N(C)[C@H](C(=O)N(C)C)CC(=O)N1C` [PP2936], in assay [1], the “NRAS /KRAS” value is “AA (a compound having 20 or more is denoted as AA)”. Besides, the half-maximal inhibitory concentration (IC50) in assay [2] is 187 nM. Also, the “HRAS /KRAS” value at HRAS wild-type protein was “A (a compound having 10 or more and less than 20 is denoted as A)”.

Turning to `CCC(CC)[C@H]1C(=O)N(C)[C@H](C(=O)N(C)C)CC(=O)N(C)[C@@H](COC)C(=O)N[C@@H]([C@@H](C)CC)C(=O)N(C)CC(=O)N(C)[C@H]2C/C=C\CCN(C2=O)[C@@H](Cc2ccc(C(F)(F)F)cc2)C(=O)N(C)CC(=O)N[C@@H](CCc2ccc(Cl)c(Cl)c2)C(=O)N2CCOC[C@H]2C(=O)NC2(CC(C)(C)C2)C(=O)N1C` [PP2941], the “NRAS /KRAS” value in assay [1] is listed as “AA (a compound having 20 or more is denoted as AA)”. Besides, half-maximal inhibition in assay [2] (IC50) was put at 104 nM. For the same molecule, the “HRAS /KRAS” value at HRAS wild-type protein was “A (a compound having 10 or more and less than 20 is denoted as A)”.

Turning to `CCC[C@H]1C(=O)N[C@@H]([C@@H](C)CC)C(=O)N(C)CC(=O)N(C)[C@H]2C/C=C\CCN(C2=O)[C@@H](Cc2ccc(C(F)(F)F)cc2)C(=O)N(C)CC(=O)N[C@@H](CCc2cc(Cl)c3sccc3c2)C(=O)N2C[C@H](OCC)C[C@H]2C(=O)NC2(CC(C)(C)C2)C(=O)N(C)[C@@H](C2CCCC2)C(=O)N(C)[C@H](C(=O)N(C)C)CC(=O)N1C` [PP2946], in assay [1], the “NRAS /KRAS” value was “A (a compound having 10 or more and less than 20 is denoted as A)”. The IC50 in assay [2] turned out to be 5.3 nM. For the same molecule, the “HRAS /KRAS” value at HRAS wild-type protein was “A (a compound having 10 or more and less than 20 is denoted as A)”.

On to `CCC[C@H]1C(=O)N[C@@H]([C@@H](C)CC)C(=O)N(C)CC(=O)N(C)[C@H]2C/C=C\CCN(C2=O)[C@@H](Cc2ccc(C)cc2)C(=O)N(C)CC(=O)N[C@@H](CCc2ccc3sc(F)c(C)c3c2)C(=O)N2C[C@H](OCC)C[C@H]2C(=O)NC2(CC(C)(C)C2)C(=O)N(C)[C@@H](C2CCCC2)C(=O)N(C)[C@H](C(=O)N(C)C)CC(=O)N1C` [PP2949], for which, in assay [1], the “NRAS /KRAS” value is “A (a compound having 10 or more and less than 20 is denoted as A)”. Also, the IC50 in assay [2] amounted to 3.5 nM. For the same molecule, on HRAS wild-type protein, the “HRAS /KRAS” value was “A (a compound having 10 or more and less than 20 is denoted as A)”.

`CCC[C@H]1C(=O)N[C@@H]([C@@H](C)CC)C(=O)N(C)CC(=O)N(C)[C@H]2C/C=C\CCN(C2=O)[C@@H](Cc2ccc(C(F)(F)F)cc2)C(=O)N(C)CC(=O)N[C@@H](CCc2cc(Cl)c3c(ccn3C)c2)C(=O)N2C[C@H](OCC)C[C@H]2C(=O)NC2(CC(C)(C)C2)C(=O)N(C)[C@@H](C2CCCC2)C(=O)N(C)[C@H](C(=O)N(C)C)CC(=O)N1C` [PP2950]: the “NRAS /KRAS” value in assay [1] is “A (a compound having 10 or more and less than 20 is denoted as A)”. This molecule also came in with an IC50 in assay [2] of 24.2 nM. Further, the “HRAS /KRAS” value on HRAS wild-type protein was “A (a compound having 10 or more and less than 20 is denoted as A)”.

As for `CCO[C@@H]1C[C@H]2C(=O)NC3(CC(C)(C)C3)C(=O)N(C)[C@@H](C(CC)CC)C(=O)N(C)[C@H](C(=O)N3CCCCC3)CC(=O)N(C)[C@H]3CCC/C=C/c4ccc(cc4)C[C@@H](C(=O)N(C)CC(=O)N[C@@H](CCc4cc(F)c(C(F)(F)F)c(F)c4)C(=O)N2C1)N1CC/C=C\C[C@@H](C1=O)N(C)C(=O)CN(C)C(=O)[C@H]([C@@H](C)CC)NC3=O` [PP2952], in assay [1], the “NRAS /KRAS” value was “AA (a compound having 20 or more is denoted as AA)”. Moreover, in assay [2], the midpoint of inhibition, the IC50, lay at 45 nM. Moreover, the “HRAS /KRAS” value on HRAS wild-type protein is “A (a compound having 10 or more and less than 20 is denoted as A)”.
